Reference: the supplement of paper PMC10627819

Experiments:
S. aureus Newman [1] = test: Bliss interaction score (quartile over a dose matrix) (fitness difference); higher = more antagonism (negative = synergy)
Summary of the method: (§1)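 Each plate was normalised to the robust mean of its own no-drug wells, using OD595 at entry into stationary phase, with values capped at 1. This normalised growth is the fitness value. The Bliss score is the difference between observed and product-expected fitness, with single-drug fitness inferred from the combination data and quartiles taken over technical, biological and donor/recipient replicates.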

S. aureus DSM 20231 [2] = test: as above
Summary of the method: as §1

B. subtilis 168 [3] = test: as above
Summary of the method: as §1

S. pneumoniae D39V [4] = test: as above
Summary of the method: as §1

S. aureus Newman [5] = test: fitness (endpoint OD595 vs no drug) (fraction); higher = more growth
Summary of the method: (§2)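 With the first reading as background, OD595 was measured every 30 min for 14 h in 384-well plates kept at 37 °C and inoculated at OD595 0.01. TSB, LB Lennox or CY was the medium. Fitness is the optical density at the transition into stationary phase divided by the robust mean of no-drug control wells, with a cap of 1.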

S. aureus DSM 20231 [6] = test: as above
Summary of the method: as §2

B. subtilis 168 [7] = test: as above
Summary of the method: as §2

S. pneumoniae D39V [8] = test: as above
Summary of the method: as §2
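Wherever Bliss interaction score (quartile over a dose matrix) is given: first quartile when negative (synergy) and third quartile when positive (antagonism).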

Cc1ncc([N+](=O)[O-])n1CCO [Metronidazole] + COc1c(N2C[C@@H]3CCCN[C@@H]3C2)c(F)cc2c(=O)c(C(=O)O)cn(C3CC3)c12 [Moxifloxacin]
Conditions | Bliss interaction score
B. subtilis 168 [3] | -0.015
S. aureus DSM 20231 [2] | -0.063
S. aureus Newman [1] | -0.0493
S. pneumoniae D39V [4] | 0.0628

Conditions | fitness
B. subtilis 168 [7], first compound 0.625 µg/mL, partner 0.0312 µg/mL | 0.0445
B. subtilis 168 [7], first compound 0.625 µg/mL, partner 0.0625 µg/mL | 0.0572
B. subtilis 168 [7], first compound 0.625 µg/mL, partner 0.125 µg/mL | 0.045
B. subtilis 168 [7], first compound 0.625 µg/mL, partner 2 µg/mL | 0.0237
B. subtilis 168 [7], first compound 0.625 µg/mL, partner 4 µg/mL | 0.0328
B. subtilis 168 [7], first compound 0.625 µg/mL, partner 8 µg/mL | 0.0161
B. subtilis 168 [7], first compound 1.25 µg/mL, partner 0.0312 µg/mL | 0.0649
B. subtilis 168 [7], first compound 1.25 µg/mL, partner 0.0625 µg/mL | 0.0674
B. subtilis 168 [7], first compound 1.25 µg/mL, partner 0.125 µg/mL | 0.0461
B. subtilis 168 [7], first compound 1.25 µg/mL, partner 2 µg/mL | 0.0257
B. subtilis 168 [7], first compound 1.25 µg/mL, partner 4 µg/mL | 0.0355
B. subtilis 168 [7], first compound 1.25 µg/mL, partner 8 µg/mL | 0.022
B. subtilis 168 [7], first compound 2.5 µg/mL, partner 0.0312 µg/mL | 0.0682
B. subtilis 168 [7], first compound 2.5 µg/mL, partner 0.0625 µg/mL | 0.0527
B. subtilis 168 [7], first compound 2.5 µg/mL, partner 0.125 µg/mL | 0.0558
B. subtilis 168 [7], first compound 2.5 µg/mL, partner 2 µg/mL | 0.0301
B. subtilis 168 [7], first compound 2.5 µg/mL, partner 4 µg/mL | 0.0306
B. subtilis 168 [7], first compound 2.5 µg/mL, partner 8 µg/mL | 0.0188
S. aureus DSM 20231 [6], first compound 0.625 µg/mL, partner 0.0075 µg/mL | 0.835
S. aureus DSM 20231 [6], first compound 0.625 µg/mL, partner 0.015 µg/mL | 0.779
S. aureus DSM 20231 [6], first compound 0.625 µg/mL, partner 0.03 µg/mL | 0.635
S. aureus DSM 20231 [6], first compound 1.25 µg/mL, partner 0.0075 µg/mL | 0.834
S. aureus DSM 20231 [6], first compound 1.25 µg/mL, partner 0.015 µg/mL | 0.807
S. aureus DSM 20231 [6], first compound 1.25 µg/mL, partner 0.03 µg/mL | 0.633
S. aureus DSM 20231 [6], first compound 2.5 µg/mL, partner 0.0075 µg/mL | 0.883
S. aureus DSM 20231 [6], first compound 2.5 µg/mL, partner 0.015 µg/mL | 0.828
S. aureus DSM 20231 [6], first compound 2.5 µg/mL, partner 0.03 µg/mL | 0.652
S. aureus Newman [5], first compound 0.625 µg/mL, partner 0.0075 µg/mL | 0.77
S. aureus Newman [5], first compound 0.625 µg/mL, partner 0.015 µg/mL | 0.62
S. aureus Newman [5], first compound 0.781 µg/mL, partner 0.0075 µg/mL | 0.691
S. aureus Newman [5], first compound 0.781 µg/mL, partner 0.015 µg/mL | 0.537
S. aureus Newman [5], first compound 0.781 µg/mL, partner 0.03 µg/mL | 0.0945
S. aureus Newman [5], first compound 1.25 µg/mL, partner 0.0075 µg/mL | 0.811
S. aureus Newman [5], first compound 1.25 µg/mL, partner 0.015 µg/mL | 0.598
S. aureus Newman [5], first compound 1.562 µg/mL, partner 0.0075 µg/mL | 0.689
S. aureus Newman [5], first compound 1.562 µg/mL, partner 0.015 µg/mL | 0.531
S. aureus Newman [5], first compound 1.562 µg/mL, partner 0.03 µg/mL | 0.0833
S. aureus Newman [5], first compound 2.5 µg/mL, partner 0.0075 µg/mL | 0.757
S. aureus Newman [5], first compound 2.5 µg/mL, partner 0.015 µg/mL | 0.596
S. aureus Newman [5], first compound 3.124 µg/mL, partner 0.0075 µg/mL | 0.725
S. aureus Newman [5], first compound 3.124 µg/mL, partner 0.015 µg/mL | 0.525
S. aureus Newman [5], first compound 3.124 µg/mL, partner 0.03 µg/mL | 0.0829
S. pneumoniae D39V [8], first compound 1.073 µg/mL, partner 0.0037 µg/mL | 0.834
S. pneumoniae D39V [8], first compound 1.073 µg/mL, partner 0.0075 µg/mL | 0.85
S. pneumoniae D39V [8], first compound 1.073 µg/mL, partner 0.015 µg/mL | 0.879
S. pneumoniae D39V [8], first compound 1.25 µg/mL, partner 0.005 µg/mL | 0.991
S. pneumoniae D39V [8], first compound 1.25 µg/mL, partner 0.01 µg/mL | ≥ 1
S. pneumoniae D39V [8], first compound 1.25 µg/mL, partner 0.02 µg/mL | 0.975
S. pneumoniae D39V [8], first compound 2.145 µg/mL, partner 0.0037 µg/mL | 0.689
S. pneumoniae D39V [8], first compound 2.145 µg/mL, partner 0.0075 µg/mL | 0.707
S. pneumoniae D39V [8], first compound 2.145 µg/mL, partner 0.015 µg/mL | 0.808
S. pneumoniae D39V [8], first compound 2.5 µg/mL, partner 0.005 µg/mL | ≥ 1
S. pneumoniae D39V [8], first compound 2.5 µg/mL, partner 0.01 µg/mL | ≥ 1
S. pneumoniae D39V [8], first compound 2.5 µg/mL, partner 0.02 µg/mL | ≥ 1
S. pneumoniae D39V [8], first compound 4.29 µg/mL, partner 0.0037 µg/mL | 0.742
S. pneumoniae D39V [8], first compound 4.29 µg/mL, partner 0.0075 µg/mL | 0.787
S. pneumoniae D39V [8], first compound 4.29 µg/mL, partner 0.015 µg/mL | 0.84
S. pneumoniae D39V [8], first compound 5 µg/mL, partner 0.005 µg/mL | ≥ 1
S. pneumoniae D39V [8], first compound 5 µg/mL, partner 0.01 µg/mL | 0.999
S. pneumoniae D39V [8], first compound 5 µg/mL, partner 0.02 µg/mL | 0.983

fitness, S. aureus DSM 20231 [6], one replicate
Conditions | first compound 0.625 µg/mL | first compound 1.25 µg/mL | first compound 2.5 µg/mL
partner 0.06 µg/mL | 0.703 | 0.666 | 0.703
partner 0.12 µg/mL | 0.498 | 0.486 | 0.541

Cc1ncc([N+](=O)[O-])n1CCO [Metronidazole] + COc1ccc(C[C@H](N)C(=O)N[C@H]2[C@@H](O)[C@H](n3cnc4c(N(C)C)ncnc43)O[C@@H]2CO)cc1 [Puromycin]
Conditions | Bliss interaction score
B. subtilis 168 [3] | -0.0368
S. aureus DSM 20231 [2] | 0.0499
S. aureus Newman [1] | 0.0534
S. pneumoniae D39V [4] | 0.129

fitness
Conditions | first compound 0.625 µg/mL | first compound 1.073 µg/mL | first compound 1.25 µg/mL | first compound 2.145 µg/mL | first compound 2.5 µg/mL | first compound 4.29 µg/mL
B. subtilis 168 [7], partner 0.39 µg/mL | 0.936 | – | 0.945 | – | 0.961 | –
B. subtilis 168 [7], partner 0.78 µg/mL | 0.953 | – | 0.931 | – | 0.937 | –
B. subtilis 168 [7], partner 1.56 µg/mL | 0.946 | – | 0.895 | – | 0.864 | –
S. aureus DSM 20231 [6], partner 0.39 µg/mL | 0.997 | – | ≥ 1 | – | ≥ 1 | –
S. aureus DSM 20231 [6], partner 0.78 µg/mL | ≥ 1 | – | ≥ 1 | – | ≥ 1 | –
S. aureus DSM 20231 [6], partner 1.56 µg/mL | ≥ 1 | – | ≥ 1 | – | ≥ 1 | –
S. aureus Newman [5], partner 0.39 µg/mL | 0.902 | – | 0.998 | – | ≥ 1 | –
S. aureus Newman [5], partner 0.78 µg/mL | 0.968 | – | ≥ 1 | – | ≥ 1 | –
S. aureus Newman [5], partner 1.56 µg/mL | ≥ 1 | – | ≥ 1 | – | ≥ 1 | –
S. pneumoniae D39V [8], partner 1 µg/mL | – | ≥ 1 | – | 0.875 | – | 0.96
S. pneumoniae D39V [8], partner 2 µg/mL | – | 0.973 | – | 0.904 | – | 0.914
S. pneumoniae D39V [8], partner 4 µg/mL | – | 0.874 | – | 0.836 | – | 0.88

one replicate
Conditions | fitness
S. aureus DSM 20231 [6], first compound 0.625 µg/mL, partner 3.12 µg/mL | ≥ 1
S. aureus DSM 20231 [6], first compound 0.625 µg/mL, partner 6.24 µg/mL | 0.756
S. aureus DSM 20231 [6], first compound 1.25 µg/mL, partner 3.12 µg/mL | 0.957
S. aureus DSM 20231 [6], first compound 1.25 µg/mL, partner 6.24 µg/mL | 0.827
S. aureus DSM 20231 [6], first compound 2.5 µg/mL, partner 3.12 µg/mL | 0.977
S. aureus DSM 20231 [6], first compound 2.5 µg/mL, partner 6.24 µg/mL | 0.848
S. aureus Newman [5], first compound 0.781 µg/mL, partner 0.39 µg/mL | ≥ 1
S. aureus Newman [5], first compound 0.781 µg/mL, partner 0.78 µg/mL | ≥ 1
S. aureus Newman [5], first compound 0.781 µg/mL, partner 1.56 µg/mL | ≥ 1
S. aureus Newman [5], first compound 1.562 µg/mL, partner 0.39 µg/mL | 0.974
S. aureus Newman [5], first compound 1.562 µg/mL, partner 0.78 µg/mL | 0.997
S. aureus Newman [5], first compound 1.562 µg/mL, partner 1.56 µg/mL | ≥ 1
S. aureus Newman [5], first compound 3.124 µg/mL, partner 0.39 µg/mL | 0.933
S. aureus Newman [5], first compound 3.124 µg/mL, partner 0.78 µg/mL | ≥ 1
S. aureus Newman [5], first compound 3.124 µg/mL, partner 1.56 µg/mL | ≥ 1
S. pneumoniae D39V [8], first compound 1.25 µg/mL, partner 1 µg/mL | 0.928
S. pneumoniae D39V [8], first compound 1.25 µg/mL, partner 2 µg/mL | 0.97
S. pneumoniae D39V [8], first compound 1.25 µg/mL, partner 4 µg/mL | 0.842
S. pneumoniae D39V [8], first compound 2.5 µg/mL, partner 1 µg/mL | 0.936
S. pneumoniae D39V [8], first compound 2.5 µg/mL, partner 2 µg/mL | ≥ 1
S. pneumoniae D39V [8], first compound 2.5 µg/mL, partner 4 µg/mL | 0.835
S. pneumoniae D39V [8], first compound 5 µg/mL, partner 1 µg/mL | 0.97
S. pneumoniae D39V [8], first compound 5 µg/mL, partner 2 µg/mL | 0.95
S. pneumoniae D39V [8], first compound 5 µg/mL, partner 4 µg/mL | 0.852
